# Assay results taken from US20060154990A1, “Use of MEK inhibitors in treating abnormal cell growth” (AGOURON PHARMACEUTICALS, INC., priority 2004, published 2006).
# “And” between values parts separate entries of the source, which are not always exact repeats. Equal entries are not always repeated.
# Columns and labels:
# [1] = Metabolites of [14C] Compound 1 in cryopreserved hepatocytes; type: in vitro ADME, dog; conditions: [C-14] Compound 1 10 μM, 180 mins
# Experimental: (§1) Incubations were performed in hepatocytes for 3 hours and liver microsomes for 1.5 hours and were stopped with the addition of methanol. HPLC, in conjuction with ionspray 3D iontrap mass spectrometry, and simultaneous radioactive monitoring were used to detect and identify the resulting metabolites.
# (§2) Metabolite identification of radiolabeled Compound 1 was performed after incubation with rat, dog, monkey and human cryopreserved hepatocytes and liver microsomes. […] Besides glucuronidation, metabolites derived from other clearance pathways are also observed. For instance, M 15 (acid cleavage product) accounts for 11% of the total radioactivity in the human chromatogram.
# [2] = tested on: advanced cancer (breast, colon, NSCLC, melanoma); assay: Phase 1/2 clinical study: tumor response (RECIST); conditions: for Clinical Response: individual patient
# [3] = tested on: ERK phosphorylation in HCT-116 colon cells; assay: cells; conditions: Homo sapiens, HCT-116, 1 h, read-out: Cellular IC50
# [4] = Metabolites of [14C] Compound 1 in cryopreserved hepatocytes; type: in vitro ADME, rat; conditions: [C-14] Compound 1 10 μM, 180 mins
# Experimental: as §1, §2
# [5] = as above; type: in vitro ADME, monkey; conditions: [C-14] Compound 1 10 μM, 180 mins
# Experimental: as §1, §2
# pERK in tumor biopsies = assay: Immunohistochemical analysis of pERK in paired tumor biopsies; conditions: for pERK Post-Treatment: H-score
# H23 NSCL xenograft = assay: Antitumor activity in H23 tumor model; type: in vivo, mice; conditions: oral 25 mg/kg once a day for 14 days
# [6] = tested on: MiaPaCa-2 pancreatic xenograft; assay: Antitumor activity in MiaPaCa-2 tumor model; type: in vivo, mice; conditions: oral 25 mg/kg once a day for 14 days
# [7] = tested on: BxPc-3 pancreatic xenograft; assay: Antitumor activity in BxPc-3 tumor model; type: in vivo, mice; conditions: oral 25 mg/kg once a day for 14 days
# pERK in MiaPaCa2 tumors = assay: Tumor pERK inhibition and PK-PD in MiaPaCa2 xenograft; design: species or system mice; conditions: Mus musculus, MIA PaCa-2, 24 h, 25 mg/kg oral, read-out: Ex vivo % pERK inhibition at 24 h
# [8] = Plasma concentrations associated with antitumor efficacy in mice; type: in vivo; conditions: mouse, oral, C26 and ZR-75-1 tumor models in mice
# panel of 27 kinases = assay: Specificity against a panel of 27 kinases; conditions: 10 μM
# [9] = Pilot food effect assessment of plasma pharmacokinetics; conditions: for AUC(0-24) Change % / Cmax Change %: fed versus fasted; for Cmax / Tmax / AUC(0-t): human, plasma, oral
# [10] = 1 mg BID, melanoma, individual patients
# [11] = 1 mg QD, breast, individual patient
# [12] = 1 mg QD, melanoma, individual patients
# [13] = 2 mg BID, colon, individual patient
# [14] = 2 mg BID, lung, individual patient
# [15] = 2 mg BID, melanoma, individual patients
# [16] = 4 mg BID, lung, individual patient
# [17] = 4 mg BID, melanoma, individual patient
# [18] = 8 mg BID, breast, individual patient
# [19] = 15 mg BID, breast, individual patient
# [20] = 15 mg BID, melanoma, individual patient
# [21] = 20 mg BID continuous, melanoma, individual patients
# [22] = 20 mg BID, melanoma, individual patient
# [23] = 30 mg BID, colon, individual patient
# [24] = 30 mg BID, melanoma, individual patients
smiles,measurement,setting,value
"O=C(NOC[C@H](O)CO)c1ccc(F)c(F)c1Nc1ccc(I)cc1F [Compound 1, N-[(R)-2,3-dihydroxy-propoxy]-3,4-difluoro-2-(2-fluoro-4-iodo-phenylamino)-benzamide]",doses at which Grade 3 rashes were seen,"human, in vivo",above 15 mg BID
same,effect on serum (C×P) product,"human, in vivo",no notable effect
same,MTD,"patients, dosing 21 days of a 28-day cycle",20 mg BID
same,% ROI Dog,[1],50.45%
same,Clinical Response,"[2]; 2 mg BID, colon, cell wraps: stable disease",stable
same,Clinical Response,"[2]; 2 mg BID, melanoma, cell wraps: stable disease",stable
same,Clinical Response,"[2]; 4 mg BID, lung, cell wraps: stable disease",stable
same,Clinical Response,"[2]; 4 mg BID, melanoma, cell wraps: stable disease",stable
same,Clinical Response,"[2]; 15 mg BID, breast, cell wraps: stable disease",stable
same,Clinical Response,"[2]; 20 mg BID continuous, melanoma, cell wraps: stable disease",stable
same,Clinical Response,"[2]; 20 mg BID, melanoma, cell wraps: partial response",partial
same,Clinical Response,"[2]; 30 mg BID, melanoma, cell wraps: stable disease",stable
same,Patients with stable disease,[2]; of 42 patients treated,10
same,Partial responses,"[2]; of 42 patients treated, melanoma",2
same,IC50,[3],0.28 nM
same,% ROI Rat,[4],72.06%
same,% ROI Monkey,[5],23.46%
same,pERK % Reduction from Baseline,pERK in tumor biopsies; [10],−65% and 0%
same,pERK % Reduction from Baseline,pERK in tumor biopsies; [11],−4%
same,pERK % Reduction from Baseline,pERK in tumor biopsies; [12],−93% and 0%
same,pERK % Reduction from Baseline,pERK in tumor biopsies; [13],0%
same,pERK % Reduction from Baseline,pERK in tumor biopsies; [14],−95%
same,pERK % Reduction from Baseline,pERK in tumor biopsies; [15],−97% and −100%
same,pERK % Reduction from Baseline,pERK in tumor biopsies; [16],−100%
same,pERK % Reduction from Baseline,pERK in tumor biopsies; [17],−70%
same,pERK % Reduction from Baseline,pERK in tumor biopsies; [18],−93%
same,pERK % Reduction from Baseline,pERK in tumor biopsies; [19],−9%
same,pERK % Reduction from Baseline,pERK in tumor biopsies; [20],−100%
same,pERK % Reduction from Baseline,pERK in tumor biopsies; [21],−100% and −72% and −18%
same,pERK % Reduction from Baseline,pERK in tumor biopsies; [22],−100%
same,pERK % Reduction from Baseline,pERK in tumor biopsies; [23],−91%
same,pERK % Reduction from Baseline,pERK in tumor biopsies; [24],−4% and −87%
same,pERK Post-Treatment,pERK in tumor biopsies; [10],45 and 40
same,pERK Post-Treatment,pERK in tumor biopsies; [11],135
same,pERK Post-Treatment,pERK in tumor biopsies; [12],3 and 78
same,pERK Post-Treatment,pERK in tumor biopsies; [13],12
same,pERK Post-Treatment,pERK in tumor biopsies; [14],8
same,pERK Post-Treatment,pERK in tumor biopsies; [15],10 and 0
same,pERK Post-Treatment,pERK in tumor biopsies; [16],0
same,pERK Post-Treatment,pERK in tumor biopsies; [17],50
same,pERK Post-Treatment,pERK in tumor biopsies; [18],5
same,pERK Post-Treatment,pERK in tumor biopsies; [19],150
same,pERK Post-Treatment,pERK in tumor biopsies; [20],0
same,pERK Post-Treatment,pERK in tumor biopsies; [21],0 and 23 and 45
same,pERK Post-Treatment,pERK in tumor biopsies; [22],1
same,pERK Post-Treatment,pERK in tumor biopsies; [23],3
same,pERK Post-Treatment,pERK in tumor biopsies; [24],70 and 15
same,CR (complete responder),H23 NSCL xenograft,0/8
same,PR (partial responder),H23 NSCL xenograft,1/8
same,T − C,H23 NSCL xenograft,13.9 days
same,Tumor Free,H23 NSCL xenograft,0/8
same,CR (complete responder),[6],1/9
same,PR (partial responder),[6],0/9
same,T − C,[6],16.8 days
same,Tumor Free,[6],0/9
same,CR (complete responder),[7],2/10
same,PR (partial responder),[7],8/10
same,T − C,[7],20.6 days
same,Tumor Free,[7],0/10
same,inhibition at 25 mg/kg,pERK in MiaPaCa2 tumors,93%
same,AUC(0-t),[8]; read-out: lowest plasma AUC(0-24) associated with meaningful in vivo antitumor efficacy,1180 to 1880 ng·h/mL
same,Cmax,[8]; read-out: lowest plasma Cmax associated with meaningful in vivo antitumor efficacy,260 to 428 ng/mL
same,inhibition of panel of 27 kinases,panel of 27 kinases,completely refractory to inhibition
same,AUC(0-24) Change %,"[9]; 1 mg BID, individual patients",−76% and 390%
same,Cmax Change %,"[9]; 1 mg BID, individual patients",−82% and 161%
same,AUC(0-24) Fasted,"[9]; 1 mg BID, individual patients",998 ng·h/mL and 133 ng·h/mL
same,AUC(0-24) Fed,"[9]; 1 mg BID, individual patients",244 ng·h/mL and 652 ng·h/mL
same,Cmax Fasted,"[9]; 1 mg BID, individual patients",181 ng/mL and 21.6 ng/mL
same,Cmax Fed,"[9]; 1 mg BID, individual patients",56.4 ng/mL
same,AUC(0-24) Change %,"[9]; 2 mg BID, individual patients",−38% and 138% and 74% and 1%
same,Cmax Change %,"[9]; 2 mg BID, individual patients",−62% and −29% and −28% and −36%
same,AUC(0-24) Fasted,"[9]; 2 mg BID, individual patients",874 ng·h/mL and 526 ng·h/mL and 454 ng·h/mL
same,AUC(0-24) Fed,"[9]; 2 mg BID, individual patients",369 ng·h/mL and 2080 ng·h/mL and 914 ng·h/mL and 456 ng·h/mL
same,Cmax Fasted,"[9]; 2 mg BID, individual patients",77.5 ng/mL and 173 ng/mL and 71.9 ng/mL and 88.7 ng/mL
same,Cmax Fed,"[9]; 2 mg BID, individual patients",29.5 ng/mL and 122 ng/mL and 52.1 ng/mL and 56.7 ng/mL
same,Tmax Fed,"[9]; 2 mg BID, individual patients",8 h
same,AUC(0-24) Change %,"[9]; 4 mg BID, individual patients",−7% and −20% and −18% (2×)
same,Cmax Change %,"[9]; 4 mg BID, individual patients",−25% and −49% (2×) and −57%
same,AUC(0-24) Fasted,"[9]; 4 mg BID, individual patients",1060 ng·h/mL and 721 ng·h/mL and 919 ng·h/mL
same,AUC(0-24) Fed,"[9]; 4 mg BID, individual patients",849 ng·h/mL and 590 ng·h/mL and 754 ng·h/mL
same,Cmax Fasted,"[9]; 4 mg BID, individual patients",65.5 ng/mL and 157 ng/mL and 114 ng/mL
same,Cmax Fed,"[9]; 4 mg BID, individual patients",80.7 ng/mL and 58.4 ng/mL and 68.0 ng/mL
same,Tmax Fasted,"[9]; 4 mg BID, individual patients",1 h
same,AUC(0-24) Change %,"[9]; 15 mg BID, individual patients",−14% and −67% and −27%
same,Cmax Change %,"[9]; 15 mg BID, individual patients",−59% and −80% and −50%
same,AUC(0-24) Fasted,"[9]; 15 mg BID, individual patients",2880 ng·h/mL and 4880 ng·h/mL
same,AUC(0-24) Fed,"[9]; 15 mg BID, individual patients",4700 ng·h/mL and 957 ng·h/mL and 3580 ng·h/mL
same,Cmax Fasted,"[9]; 15 mg BID, individual patients",1120 ng/mL and 464 ng/mL and 641 ng/mL
same,Cmax Fed,"[9]; 15 mg BID, individual patients",459 ng/mL and 92.0 ng/mL and 319 ng/mL
same,AUC(0-24) Change %,"[9]; 20 mg BID, individual patients",−6% and −2% and −15%
same,Cmax Change %,"[9]; 20 mg BID, individual patients",−57% and −32% and −34%
same,AUC(0-24) Fasted,"[9]; 20 mg BID, individual patients",4340 ng·h/mL and 6820 ng·h/mL and 3360 ng·h/mL
same,AUC(0-24) Fed,"[9]; 20 mg BID, individual patients",4060 ng·h/mL and 6700 ng·h/mL and 2860 ng·h/mL
same,Cmax Fasted,"[9]; 20 mg BID, individual patients",1180 ng/mL and 596 ng/mL
same,Cmax Fed,"[9]; 20 mg BID, individual patients",358 ng/mL and 797 ng/mL and 393 ng/mL
same,coefficient of variation (CV) for AUC(0-24),[9]; fed state,78%
same,Cmax,"[9]; 1 mg, Cmax Fed, 1 mg BID, individual patients",33.4 ng/mL
same,Tmax,"[9]; 1 mg, Tmax Fasted, 1 mg BID, individual patients",1 h
same,Tmax,"[9]; 1 mg, Tmax Fed, 1 mg BID, individual patients",3 h
same,AUC(0-t),"[9]; 2 mg, AUC(0-24) Fasted, 2 mg BID, individual patients",594 ng·h/mL
same,Tmax,"[9]; 2 mg, Tmax Fasted, 2 mg BID, individual patients",1 h
same,Tmax,"[9]; 2 mg, Tmax Fed, 2 mg BID, individual patients",6 h
same,AUC(0-t),"[9]; 4 mg, AUC(0-24) Fasted, 4 mg BID, individual patients",705 ng·h/mL
same,AUC(0-t),"[9]; 4 mg, AUC(0-24) Fed, 4 mg BID, individual patients",654 ng·h/mL
same,Cmax,"[9]; 4 mg, Cmax Fed, 4 mg BID, individual patients",49.1 ng/mL
same,Tmax,"[9]; 4 mg, Tmax Fed, 4 mg BID, individual patients",6 h
same,AUC(0-t),"[9]; 15 mg, AUC(0-24) Fasted, 15 mg BID, individual patients",5460 ng·h/mL
same,Tmax,"[9]; 15 mg, Tmax Fasted, 15 mg BID, individual patients",1 h
same,Tmax,"[9]; 15 mg, Tmax Fed, 15 mg BID, individual patients",4 h
same,Cmax,"[9]; 20 mg, Cmax Fasted, 20 mg BID, individual patients",839 ng/mL
same,Tmax,"[9]; 20 mg, Tmax Fasted, 20 mg BID, individual patients",1 h
same,Tmax,"[9]; 20 mg, Tmax Fed, 20 mg BID, individual patients",4 h
same,delay of peak plasma levels,[9]; taken with a high fat meal,2 to 7 h
